The text below walks through data of patent publication US11819488B2, “Nanosuspensions of salsalate and methods of using the same” (RHNanoPharma, priority 2018, dated 2023).

For data set [1] the following is noted: studies of 3 weeks or more in duration; cited from earlier work.
A short description of the next data set: pH of salsalate in water. It is filed as physicochemical. How it is done: The pH of salsalate in water was slightly below 4, so no pH adjustment was attempted. The samples were analyzed using Horiba light scattering particle size distributions (PSD). One of several acceptable formulations was selected to scale up to a higher concentration of API using high speed media milling.

The conditions of data set [2]: in terms of salicylic acid equivalents; cited from earlier work.
A short description of data set [3]: Particle size analysis, Horiba light scattering; oral excipient screen (Example 1). It is filed as physicochemical. As to conditions: unmilled aqueous suspension of 5% salsalate, FIG. 1B. How it is done: The pH of salsalate in water was slightly below 4, so no pH adjustment was attempted. The samples were analyzed using Horiba light scattering particle size distributions (PSD). One of several acceptable formulations was selected to scale up to a higher concentration of API using high speed media milling. […] Eight different aqueous nanosuspensions of salsalate, with differing surfactants or combinations of surfactants, were prepared and analyzed for particle size. The first 7 formulations were made by roller milling with a Roller-Mill RM20 (ZOZ GmbH) with YTZ-800 grinding media (Tosoh Corp.) at 192 rpm. The 8th formulation was made via high speed media milling (5000 rpm). The particle sizes of the resultant compositions were then analyzed using a Horiba light scattering particle size analyzer. The compositions and results of the particle size analyses are shown below in Table 2 and in FIGS. 2A, 2B, 3A, 3B etc. through 9A and 9B.

For data set [4] the following is noted: non-nano salsalate 3.0, 3.5, 4.0 g/d vs placebo, type two diabetes, P=0.003, FIG. 28A; cited from earlier work.

`O=C(Oc1ccccc1C(=O)O)c1ccccc1O` [salsalate, 2-hydroxybenzoyloxy benzoic acid]: the “study withdrawal from the salsalate group for any reason” value in data set [1] is 17-38%. For the same compound, the “pH of salsalate in water” value in the data set “pH of salsalate in water” was “below 4”. Moreover, the “salicylic acid obtained relative to an equivalent dose of aspirin, based on relative AUC values” in data set [2] is “approximately 84%”. Moreover, in data set [3], the D90 particle size was found to be 435 μm, the mean particle size turned out to be 244 μm and the median particle size is recorded as 222.24 μm. Moreover, in data set [4], the “HbAlc level over time, F test for the overall effect of treatment group” value is reported as “significant”.
